The source of these data is patent US10273279B2, “Protease activated receptor-1 (PAR1) derived cytoprotective polypeptides and related methods” (THE SCRIPPS RESEARCH INSTITUTE, priority 2011, dated 2019).

Common to all, as to assay type: cell-based
The target of assay [1] is T1, SEAP-PAR1 (Homo sapiens, UniProt P25116).
T1 construct: we created a full-length PAR-1 construct linked at the N-terminus to an alkaline phosphatase reporter group (SEAP); expressed in transfected cells
T1 sequence (P25116 22-425): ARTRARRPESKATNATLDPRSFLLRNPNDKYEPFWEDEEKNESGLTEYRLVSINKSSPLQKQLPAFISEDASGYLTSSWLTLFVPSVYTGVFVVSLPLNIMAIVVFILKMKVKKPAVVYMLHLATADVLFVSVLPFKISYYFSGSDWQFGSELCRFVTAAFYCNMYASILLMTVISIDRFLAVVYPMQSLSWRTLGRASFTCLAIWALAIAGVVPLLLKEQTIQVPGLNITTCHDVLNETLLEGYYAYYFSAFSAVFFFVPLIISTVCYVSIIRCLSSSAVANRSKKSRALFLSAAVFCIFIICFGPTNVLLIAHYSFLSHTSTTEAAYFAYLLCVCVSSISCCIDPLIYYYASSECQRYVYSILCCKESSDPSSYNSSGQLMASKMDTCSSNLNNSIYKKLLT
Description: SEAP-PAR1 cleavage reporter on transfected HEK-293 cells (SEAP release). The conditions noted are these: cells containing wild-type EPCR. The source says:
(§1) To facilitate analysis of APC-mediated PAR-1 activation, we created a full-length PAR-1 construct linked at the N-terminus to an alkaline phosphatase reporter group (SEAP). Selection of stable cell lines expressing both endothelial protein C receptor (EPCR) (wt or E86A) and SEAP-PAR1 allowed for a reliable and reproducible analysis of EPCR-dependent PAR-1 activation by APC. Mass-spec analysis of cleavage fragments generated by APC of a synthetic PAR-1 N-terminal tail peptide (TR33-62) identified both Arg^41 and Arg^46 as potential cleavage sites for APC proteolysis, as noted above. […] R41Q-SEAP-PAR1 was cleaved by APC in the presence of EPCR. This surprising result was also obtained for R41A-SEAP PAR1.
(§2) 2009; 113:5970-5978. SEAP-PAR1, either in the presence or absence of wt-EPCR, were transfected into HEK-293 cells to obtain stable cells expressing SEAP-PAR1 or wt-EPCR/SEAP-PAR1. Mutations in SEAP-PAR1 were introduced using the Quickchange method (Agilent). Cells were grown in 96-wells plates to confluency in Dulbeco's modified Eagle media (DMEM): Ham's F-12 (Invitrogen) supplemented with penicillin-streptomycin-glutamine (PSG) (Gibco) and 10% fetal bovine serum (Omega) in a humidified atmosphere at 37° C. and 5% CO2 Cells were washed with Hank's balanced salt solution (HBSS; Invitrogen) supplemented with 1.3 mM CaCl2, 0.6 mM MgCl2 and 0.1% endotoxin free BSA (Calbiochem) and incubated with APC. After 60 min, SEAP release was determined using 1-step PNPP (Pierce). Values were corrected for background activity derived from the same cells incubated in the absence of APC and expressed as a percentage of total SEAP available on the cell membrane.

Assay [2] has as its target T2, SEAP-PAR1 (Homo sapiens, UniProt P25116, R46Q).
T2 construct: we created a full-length PAR-1 construct linked at the N-terminus to an alkaline phosphatase reporter group (SEAP); expressed in transfected cells
T2 sequence (P25116 22-425 R46Q): T1 sequence (P25116 22-425) with R25Q
The description is as above. The conditions noted are these: cells with wt-EPCR.
Source text: as §1, §2

The target in assay [3] is T3, endogenous PAR1 on EA.hy.926 endothelial cells (Homo sapiens, UniProt P25116).
T3 construct: untransfected EA.hy.926 endothelial cells expressing endogenous EPCR and PAR1; host or cells: EA.hy.926 endothelial cells
T3 sequence (P25116 22-425): T1 sequence (P25116 22-425)
Description: On cell Western (OCW) immunoassay of PAR1 cleavage on EA.hy.926 endothelial cells. The conditions noted are these: 1 hr at 4° C., 0.5 nM thrombin or 25 nM APC. The procedure: Subsequently, these antibodies were used in an on cell Western (OCW) immunoassay on EA.hy.926 endothelial cells to determine whether APC cleaves PAR1 at Arg^46 in the presence of endogenous PAR1 and EPCR expression. […] Incubations were performed at 4° C. to minimize receptor recycling and internalization. After fixation and staining, antibody signals were normalized for total cell number using the cell permeable nuclear dye Draq5 and antibody signals for the goat anti-PAR1 antibodies (Ab87 and Origene) and ATAP2 were expressed as a fraction of the signal obtained for WEDE15 reflecting the total PAR1 present on the cell surface.
Detailed methods and steps used for the study shown in FIG. 5 are as follows: EA.hy.926 cells (ATCC: CRL-2922) were grown in black clear bottom 96 well plates (Nunc) in DMEM (Invitrogen #12430) supplemented with glutamax (Invitrogen #35050) and 10% FBS (Hyclone #35-011-CV) in a 37° C. cell incubator with a humidified atmosphere and 5% CO2 in air until confluency. […] After final washing with PBS/0.1% Tween, IR fluorescence of bound antibodies was determined using the Odyssey (Licor). Background fluorescence was determined by omitting the primary antibody and subtracting background values from all observed values.

Changes are numbered by the printed parent chain.

On to thrombin, for which the “cleavage of wt-PAR1 (SEAP-PAR1)” value on SEAP-PAR1 [1] is on record as “cleaved”. Besides, the “cleavage of R46Q-SEAP-PAR1” value at SEAP-PAR1 [2] is given as “efficient cleavage”. Also, in assay [3], the “decrease of ATAP2 signal compared to WEDE15” value is recorded as “not significantly different”.
On the same counts, the results for “APC: Activated Protein C, serine protease with anticoagulant and cytoprotective cell signaling activities” are “cleaved”, “did not eliminate PAR1 cleavage” and 50%.
